Assay [1] concerns the target KDR kinase (Homo sapiens, UniProt P35968). Kind of assay: Evaluation of kinase selectivity (KDR kinase IC50 versus Axl IC50, in vitro test). The format is biochemical. Conditions: Axl selective inhibitory activity with respect to KDR kinase, ratio of IC50 values. The method, then: Similar to Biological Example 1, values of 50% inhibition rate (IC50 value) with respect to the KDR kinase of the test compound was measured. The Axl selective inhibitory activity of the test compound with respect to KDR kinase was calculated based on the above-mentioned ratio of the IC50 values. As the test compounds, for the compounds of the present invention, the compounds of Examples 21, 42, 66, and 28 were used, and for the comparative compounds, the compound of Example 74 (Comparative compound B) and the compound of Example 92 (Comparative compound C) described in Patent Literature 5, having the following structure, were used.

Assay [2] concerns the target T1, Axl enzyme (Homo sapiens, UniProt P30530).
T1 sequence (P30530 26-894): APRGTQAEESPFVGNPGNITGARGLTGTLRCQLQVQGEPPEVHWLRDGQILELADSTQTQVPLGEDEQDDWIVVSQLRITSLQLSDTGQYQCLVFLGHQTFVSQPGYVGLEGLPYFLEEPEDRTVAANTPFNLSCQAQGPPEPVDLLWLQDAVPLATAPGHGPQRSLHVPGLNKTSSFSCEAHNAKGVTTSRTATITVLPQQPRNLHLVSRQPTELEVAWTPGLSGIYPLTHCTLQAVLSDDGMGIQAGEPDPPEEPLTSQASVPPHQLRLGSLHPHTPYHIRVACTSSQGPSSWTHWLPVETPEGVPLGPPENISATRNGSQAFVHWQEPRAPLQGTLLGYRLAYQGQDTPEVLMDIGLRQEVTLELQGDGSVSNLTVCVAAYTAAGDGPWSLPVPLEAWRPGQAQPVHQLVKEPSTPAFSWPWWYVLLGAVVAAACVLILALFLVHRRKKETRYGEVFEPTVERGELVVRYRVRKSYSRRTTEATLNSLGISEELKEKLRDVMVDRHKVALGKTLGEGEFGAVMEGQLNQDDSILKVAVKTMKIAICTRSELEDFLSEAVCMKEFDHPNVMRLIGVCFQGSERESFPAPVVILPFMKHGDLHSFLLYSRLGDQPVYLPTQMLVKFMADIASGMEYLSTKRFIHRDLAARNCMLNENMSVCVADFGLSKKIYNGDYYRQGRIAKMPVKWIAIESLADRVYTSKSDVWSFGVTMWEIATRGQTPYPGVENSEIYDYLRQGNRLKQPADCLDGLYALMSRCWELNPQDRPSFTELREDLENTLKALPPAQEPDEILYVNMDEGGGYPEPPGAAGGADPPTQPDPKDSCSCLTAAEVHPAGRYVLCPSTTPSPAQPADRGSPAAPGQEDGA
Description: Measurement of Axl inhibitory activity (LanthaScreen TR-FRET, in vitro test). In kind it is biochemical. Conditions: Fluorescein-Poly GT substrate. The method, then:
Axl enzyme inhibitory activity was measured by using LanthaScreen (registered trademark) system (Invitrogen) based on the attached instruction. The reagents used are shown below.
Reaction buffer solution: a solution containing 50 mmol/L HEPES (pH7.5), 0.01% Brij35, 10 mmol/L MgCl2 and 1 mmol/L EGTA was prepared by using purified water.
Test substance solution: a solution containing a test compound of 5-fold concentration with respect to the final concentration was prepared by 20-fold diluting a DMSO solution of test compound of each concentration with the reaction buffer solution.
Enzyme solution: a solution containing 400 ng/mL Axl enzyme was prepared by using the reaction buffer solution.
Substrate solution: a solution containing 45 μmol/L ATP and 500 nmol/L Fluorescein-Poly GT (Invitrogen) was prepared by using the reaction buffer solution.
Detection solution: a solution containing 20 mM EDTA and 4 nM PY20 (Invitrogen) was prepared by using Dilution B (Invitrogen).
A 10 mmol/L DMSO solution of the test compound was dispensed into a 96-well plate (Nunc), and, furthermore, a 3-fold dilution series was prepared using DMSO. In each well of the 96-well plate for measurement, 5 μL each of the reaction buffer solution containing DMSO was added to a Blank group and a medium group, and 5 μL of the test substance solution was added to the test substance group, respectively. Next, 10 μL/well of the reaction buffer solution was added to the Blank group, and 10 μL/well each of the enzyme solution was added to the medium group and the test compound group, followed by stirring at room temperature for 10 min. After the completion of stirring, 10 μL each of the substrate solution was added into each well, followed by stirring at room temperature with light shielded for one hour. After the completion of reaction, 25 μL each of the detection solution was added to each well, and stood still at room temperature with light shielded for 30 min. After standing sill, fluorescence intensity at 520 nm and 495 nm at the time of irradiation with exciting light of 340 nm was measured by using Analyst GT (Molecular Devices). The phosphorylation of the artificial substrate was quantified by Time-resolved Fluorescence Resonance Energy Transfer (TR-FRET). TR-FRET ratio was calculated by dividing 520 nm fluorescence signal by 495 nm fluorescence signal for each well, and the inhibition rate (%) in the test compound group was calculated based on the following mathematical formula. Inhibition rate (%)=[1−(TR-FRET ratio of test compound group−A)/(B−A)×100 [Math. 1] A: average value of TR-FRET ratios of Blank group B: average value of TR-FRET ratios of medium group
Values of 50% inhibition rate (IC50 values) of the test compound were calculated from the inhibition curve based on the inhibition rate of the test compounds in each concentration.
(In general: TR-FRET usually uses a lanthanide donor and a delayed reading to cut background.)

Assay [3] has as its target T2, Ba/F3 Axl (Homo sapiens, UniProt P30530).
T2 sequence (P30530 1-894): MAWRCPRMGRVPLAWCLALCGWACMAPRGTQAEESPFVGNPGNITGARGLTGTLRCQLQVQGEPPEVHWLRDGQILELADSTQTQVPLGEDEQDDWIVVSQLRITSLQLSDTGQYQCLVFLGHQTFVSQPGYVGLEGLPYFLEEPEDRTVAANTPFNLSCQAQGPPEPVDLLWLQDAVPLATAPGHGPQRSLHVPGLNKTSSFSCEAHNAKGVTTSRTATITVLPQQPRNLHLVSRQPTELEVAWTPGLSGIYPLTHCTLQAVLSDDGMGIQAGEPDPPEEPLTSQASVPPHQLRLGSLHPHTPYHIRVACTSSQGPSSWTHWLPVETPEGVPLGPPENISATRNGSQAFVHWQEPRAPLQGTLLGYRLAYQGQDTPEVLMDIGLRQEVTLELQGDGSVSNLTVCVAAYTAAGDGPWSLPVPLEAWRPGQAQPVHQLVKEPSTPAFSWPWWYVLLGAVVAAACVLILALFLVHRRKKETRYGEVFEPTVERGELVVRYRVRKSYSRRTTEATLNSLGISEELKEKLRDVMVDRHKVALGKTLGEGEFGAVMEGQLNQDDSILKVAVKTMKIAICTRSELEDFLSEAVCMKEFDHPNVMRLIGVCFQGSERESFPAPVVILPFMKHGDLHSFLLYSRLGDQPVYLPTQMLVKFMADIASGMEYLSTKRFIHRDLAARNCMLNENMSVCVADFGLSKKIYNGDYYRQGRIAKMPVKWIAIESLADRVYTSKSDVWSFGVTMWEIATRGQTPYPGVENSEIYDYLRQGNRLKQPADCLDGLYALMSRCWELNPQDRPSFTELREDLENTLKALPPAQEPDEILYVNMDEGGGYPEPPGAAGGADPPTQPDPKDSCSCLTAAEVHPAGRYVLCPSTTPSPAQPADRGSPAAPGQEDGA
Description: Proliferation suppression rate using mouse pro-B cell line (Ba/F3 Axl) stably expressing Axl (CellTiter-Glo). In kind it is cell-based. Conditions: Ba/F3 Axl cells, 48 hours, read-out: IC50 value of proliferation suppression, Ba/F3 Axl. How it is done: A 0.1 mmol/L DMSO solution of the test compound was dispensed into a 96-well plate, and a 3-fold dilution series was prepared using DMSO. DMSO solutions of test compounds, having various concentrations, were further 500-fold diluted with a RPMI1640 medium (containing 10% HI-FBS, 1% penicillin) and a diluted solution of the test compound having […] with respect to the final concentration was prepared. In each well of the 96-well plate (BD Biosciences) for measurement, 50 μL of a RPMI medium was added to the Blank group, 50 μL of a RPMI medium containing 0.2% DMSO was added to the medium group, and 50 μL of the diluted solution of the test compound was added to the test compound group, respectively. Ba/F3 Axl was diluted with a medium to have a density of 2×10^5 cells/mL to prepare a cell suspension. In each well of the 96-well plate for measurement, 50 μL each of the RPMI medium was added to the Blank group, and 50 μL each of the cell suspension to the medium group and the test compound group, respectively, and the groups were stood still at 37° C. at 5% CO2 for 48 hours. After standing still, Relative Light Unit (RLU) was measured by using CELLTITER-GLO (registered trademark) LUMINESCENT CELL VIABILITY ASSAY (Promega). The measurement was carried out according to the attached instruction. To each well, 100 μL each of light-emitting solution was added. The plate was stirred at room temperature for 3 min and then stool still at room temperature with light shielded for 10 min, and RLU was measured by using Microplate Reader (SpectraMax M5e, Molecular Devices). The average values of RLU of the Blank group and the medium group were respectively calculated, and the proliferation suppression rate of the test compound group was calculated. Proliferation suppression rate (%)={1−(RLU of test compound group−A)/(B−A)}×100 [Math. 2] A: average value of RLU of Blank group B: average value of RLU of medium group
A value of 50% inhibition rate (IC50 value) of the test compound was calculated from the inhibition curve based on the inhibition rate in each concentration of the test compound.
(Cellular ATP, detected with luciferase, serves as a proxy for viable cell number.)

Each structure is given as a SMILES string.

Chain of KDR kinase (P35968 20-1356): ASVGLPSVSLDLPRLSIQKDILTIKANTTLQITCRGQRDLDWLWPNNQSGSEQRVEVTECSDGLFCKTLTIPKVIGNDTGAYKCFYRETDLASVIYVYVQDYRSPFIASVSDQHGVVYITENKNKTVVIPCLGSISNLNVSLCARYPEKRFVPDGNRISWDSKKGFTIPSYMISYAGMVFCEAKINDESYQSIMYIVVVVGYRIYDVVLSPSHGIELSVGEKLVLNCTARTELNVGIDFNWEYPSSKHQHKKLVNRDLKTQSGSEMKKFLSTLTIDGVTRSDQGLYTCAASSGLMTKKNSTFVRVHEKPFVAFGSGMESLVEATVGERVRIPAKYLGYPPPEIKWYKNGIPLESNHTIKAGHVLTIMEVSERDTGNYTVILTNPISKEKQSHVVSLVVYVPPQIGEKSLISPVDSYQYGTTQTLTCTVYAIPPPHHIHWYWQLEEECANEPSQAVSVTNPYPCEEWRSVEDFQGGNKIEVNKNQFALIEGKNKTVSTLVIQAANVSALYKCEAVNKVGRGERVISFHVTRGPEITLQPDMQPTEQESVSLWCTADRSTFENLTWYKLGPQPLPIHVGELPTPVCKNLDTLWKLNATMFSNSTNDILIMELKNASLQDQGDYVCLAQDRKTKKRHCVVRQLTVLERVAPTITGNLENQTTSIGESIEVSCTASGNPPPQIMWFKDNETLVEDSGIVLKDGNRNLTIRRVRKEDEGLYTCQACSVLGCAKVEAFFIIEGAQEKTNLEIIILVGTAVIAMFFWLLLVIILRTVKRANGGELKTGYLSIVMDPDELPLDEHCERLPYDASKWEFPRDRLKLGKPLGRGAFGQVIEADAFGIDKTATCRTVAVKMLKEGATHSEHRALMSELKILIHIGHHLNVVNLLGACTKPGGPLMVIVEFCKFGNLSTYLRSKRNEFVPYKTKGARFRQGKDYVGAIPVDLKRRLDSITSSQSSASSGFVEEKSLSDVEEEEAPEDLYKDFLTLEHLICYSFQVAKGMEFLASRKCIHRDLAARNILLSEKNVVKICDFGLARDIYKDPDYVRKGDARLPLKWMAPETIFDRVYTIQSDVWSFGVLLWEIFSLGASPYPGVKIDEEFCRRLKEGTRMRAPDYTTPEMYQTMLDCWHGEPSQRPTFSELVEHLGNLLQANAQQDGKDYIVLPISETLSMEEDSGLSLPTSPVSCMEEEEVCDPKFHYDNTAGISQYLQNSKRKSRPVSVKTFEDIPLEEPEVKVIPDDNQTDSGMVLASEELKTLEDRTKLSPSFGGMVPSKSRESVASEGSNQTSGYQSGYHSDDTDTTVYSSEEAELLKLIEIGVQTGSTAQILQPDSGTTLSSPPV

As for `COc1cc2c(Oc3ccc(NC(=O)c4ccnn(-c5ccc(F)cc5)c4=O)cn3)ccnc2cc1OCCCN1CCOCC1` [Comparative compound C, reference compound], the “KDR [IC50]/Ax1 [IC50]” value in assay [1] was “about 28 times”.

As for `COc1cc2c(Oc3ccc(NC(=O)c4cccc5cccnc45)cc3F)ccnc2cc1OCCCN1CCOCC1` [Comparative compound B, reference compound], the “KDR [IC50]/Ax1 [IC50]” value in assay [1] was “about 0.2 times”.

For `COc1cc2nccc(Oc3ccc(NC(=O)c4cc5ccccc5[nH]c4=O)cc3)c2cc1OC` [Comparative compound A, reference compound], in assay [2], the half-inhibitory concentration (IC50) (in general, the concentration at which inhibition is half-maximal) is more than 10000 nM. Moreover, the GI50 in assay [3] is more than 10000 nM.

The compound `COc1cc2nccc(Oc3ccc(NC(=O)c4cc5ccc(N)cc5n(-c5ccccc5)c4=O)nc3)c2cc1OC` [Example 73, 7-amino-N-{5-[(6,7-dimethoxy-4-quinolinyl)oxy]-2-pyridinyl}-2-oxo-1-phenyl-1,2-dihydro-3-quinolinecarboxamide] displayed an IC50 in assay [2] of 4 nM. Moreover, the GI50 in assay [3] came out at 0.76 nM.

In turn, `CC#CC(=O)N1CCc2cc(C(=O)Nc3ccc(Oc4ccnc5cc(OC)c(OC)cc45)cn3)c(=O)n(-c3ccccc3)c2C1` [Example 36, 7-(2-butynoyl)-N-{5-[(6,7-dimethoxy-4-quinolinyl)oxy]-2-pyridinyl}-2-oxo-1-phenyl-1,2,5,6,7,8-hexahydro-1,7-naphthyridine-3-carboxamide] yielded an IC50 in assay [2] of 1.5 nM. In assay [3], the GI50 was 0.47 nM.

Values taken from patent US10208034B2, “Quinoline derivative” (ONO PHARMACEUTICAL CO., LTD., priority 2014, dated 2019).
